Paper PMC9573387, “The First 5′-Phosphorylated 1,2,3-Triazolyl Nucleoside Analogues with Uracil and Quinazoline-2,4-Dione Moieties: A Synthesis and Antiviral Evaluation” (Molecules, 2022)
Counter-ions that a name gives are not always drawn. Like-named read-outs stand apart in the source and are kept apart here.

Key:
HIV = conditions: cited from earlier work
[1] = system: recombinant HIV reverse transcriptases (RT); design: method as in PMID 17434736; conditions: cited from earlier work
wild-type HIV RT = system: wild-type HIV RT; design: method as in PMID 17434736; conditions: cited from earlier work
in vitro = conditions: dog
[2] = system: A/Puerto Rico/8/34 (H1N1) influenza virus; test: microbe, parasite or virus in culture; assay type: cell-based; conditions: for IC50: 48 h, A/Puerto Rico/8/34 (H1N1), MDCK cells, read-out: IC50 (50% inhibition of virus replication)
MDCK (ATCC CCL-34) cells [3] = system: MDCK (ATCC CCL-34) cells
[4] = system: A/Puerto Rico/8/34 (H1N1) influenza virus; design: method as in PMID 32930935; conditions: parent nucleoside analogues, cited from earlier work; for IC50: A/Puerto Rico/8/34 (H1N1), read-out: IC50 (50% inhibition of virus replication)
MDCK (ATCC CCL-34) cells [5] = conditions: read-out: CC50 (median cytotoxic concentration); parent nucleoside analogues; cited from earlier work

Nc1nc(=O)n([C@H]2C[C@@H](CO)C2)cc1F [5-fluoro-1-[cis-3-(hydroxymethyl)-cyclobutyl]-cytosine]
Anti-HIV activity, inactive up to (HIV; in vitro): > 100 µM

Nc1nc(=O)n([C@H]2C[C@@H](COP(=O)(O)OP(=O)(O)OP(=O)(O)O)C2)cc1F [5′-triphosphate of 5-fluoro-1-[cis-3-(hydroxymethyl)-cyclobutyl]-cytosine]
IC50 [1]: 4.7 µM
IC50 (wild-type HIV RT): 6.9 µM

CCOP(=O)(OCC)OC[C@H]1O[C@@H](n2cc(Cn3ccc(=O)[nH]c3=O)nn2)[C@H](O)[C@@H]1O [Compound 11a]
CC50 (in vitro): > 650 µM
IC50 ([2]; Influenza A virus, H1N1, MDCK): 434 ± 39 µM

CCOP(=O)(OCC)OC[C@H]1O[C@@H](n2cc(Cn3c(=O)[nH]c(=O)c4ccccc43)nn2)[C@H](O)[C@@H]1O [Compound 11b]
CC50 (in vitro): > 587 µM
IC50 ([2]; Influenza A virus, H1N1, MDCK): 411 ± 51 µM

CCOP(=O)(OCC)OC[C@H]1O[C@@H](n2cc(CCCCn3ccc(=O)[nH]c3=O)nn2)[C@H](O)[C@@H]1O [Compound 12a, 1-[4-(2,4-dioxo-pyrimidine-1-yl-butyl)-1,2,3-triazol-1-yl]--D-ribofuranose-5-yl diethyl phosphate]
CC50 (in vitro): > 596 µM
Antiviral activity against H1N1 (A/PR/8/34) influenza virus, in words [2]: inactive
IC50 [2]: 250 ± 22 µM
IC50 ([2]; Influenza A virus, H1N1, MDCK): > 180 µM

CCOP(=O)(OCC)OC[C@H]1O[C@@H](n2cc(CCCCn3c(=O)[nH]c(=O)c4ccccc43)nn2)[C@H](O)[C@@H]1O [Compound 12b]
CC50 (in vitro): > 542 µM
IC50 ([2]; Influenza A virus, H1N1, MDCK): > 542 µM

O=c1ccn(Cc2cn([C@@H]3O[C@H](COP(=O)(Oc4ccccc4)Oc4ccccc4)[C@@H](O)[C@H]3O)nn2)c(=O)[nH]1 [Compound 13a]
CC50 (in vitro): > 538 µM
IC50 ([2]; Influenza A virus, H1N1, MDCK): 121 ± 7 µM

O=c1[nH]c(=O)n(Cc2cn([C@@H]3O[C@H](COP(=O)(Oc4ccccc4)Oc4ccccc4)[C@@H](O)[C@H]3O)nn2)c2ccccc12 [Compound 13b]
CC50 (in vitro): > 494 µM
Antiviral activity exceeding that of the parent compound ([2]; IC50 versus parent compound 33b): 2 times
IC50 ([2]; Influenza A virus, H1N1, MDCK): 17.9 ± 3 µM
Increase of selectivity index over the parent compound ([2]; SI versus parent compound 33b): 7 times

O=c1ccn(CCCCc2cn([C@@H]3O[C@H](COP(=O)(Oc4ccccc4)Oc4ccccc4)[C@@H](O)[C@H]3O)nn2)c(=O)[nH]1 [Compound 14a]
CC50 (in vitro): > 500 µM
Antiviral activity against H1N1 (A/PR/8/34) influenza virus, in words [2]: inactive
IC50 [2]: 183 ± 15 µM
IC50 ([2]; Influenza A virus, H1N1, MDCK): > 180 µM

O=c1[nH]c(=O)n(CCCCc2cn([C@@H]3O[C@H](COP(=O)(Oc4ccccc4)Oc4ccccc4)[C@@H](O)[C@H]3O)nn2)c2ccccc12 [Compound 14b]
CC50 (in vitro): 98 ± 6 µM
SI (selectivity index, CC50/IC50 ratio) [2]: 2
IC50 ([2]; Influenza A virus, H1N1, MDCK): 51 ± 4 µM
Increase of cytotoxicity over the parent compound (MDCK (ATCC CCL-34) cells [3]; CC50 versus parent compound 34b): 7 fold

COC(=O)[C@H](C)NP(=O)(OC[C@H]1O[C@@H](n2cc(Cn3ccc(=O)[nH]c3=O)nn2)[C@H](O)[C@@H]1O)Oc1ccccc1 (stereo partly shown) [Compound 17a]
CC50 (in vitro): > 530 µM
IC50 ([2]; Influenza A virus, H1N1, MDCK): 25 ± 4 µM

COC(=O)[C@H](C)NP(=O)(OC[C@H]1O[C@@H](n2cc(Cn3c(=O)[nH]c(=O)c4ccccc43)nn2)[C@H](O)[C@@H]1O)Oc1ccccc1 (stereo partly shown) [Compound 17b]
CC50 (in vitro): > 487 µM
IC50 ([2]; Influenza A virus, H1N1, MDCK): > 487 µM

COC(=O)[C@H](C)NP(=O)(OC[C@H]1O[C@@H](n2cc(CCCCn3ccc(=O)[nH]c3=O)nn2)[C@H](O)[C@@H]1O)Oc1ccccc1 (stereo partly shown) [Compound 18a]
CC50 (in vitro): > 463 µM
Antiviral activity against H1N1 (A/PR/8/34) influenza virus, in words [2]: inactive

COC(=O)[C@H](C)NP(=O)(OC[C@H]1O[C@@H](n2cc(CCCCn3c(=O)[nH]c(=O)c4ccccc43)nn2)[C@H](O)[C@@H]1O)Oc1ccccc1 (stereo partly shown) [Compound 18b]
CC50 (in vitro): > 456 µM
IC50 ([2]; Influenza A virus, H1N1, MDCK): > 456 µM

O=c1ccn(Cc2cn([C@@H]3O[C@H](CO[PH](=O)O)[C@@H](O)[C@H]3O)nn2)c(=O)[nH]1 [Compound 23a, 1-[4-(2,4-dioxo-pyrimidine-1-yl-methyl)-1,2,3-triazol-1-yl]--D-ribofuranose-5-yl H-phosphonate triethylammonium salt]
CC50 (in vitro): > 612 µM
IC50 ([2]; Influenza A virus): 204 ± 28 µM

O=c1[nH]c(=O)n(Cc2cn([C@@H]3O[C@H](CO[PH](=O)O)[C@@H](O)[C@H]3O)nn2)c2ccccc12 [Compound 23b]
CC50 (in vitro): > 555 µM
IC50 ([2]; Influenza A virus): 176 ± 21 µM

O=c1ccn(CCCCc2cn([C@@H]3O[C@H](CO[PH](=O)O)[C@@H](O)[C@H]3O)nn2)c(=O)[nH]1 [Compound 24a]
CC50 (in vitro): > 564 µM
Antiviral activity against H1N1 (A/PR/8/34) influenza virus, in words [2]: inactive
IC50 ([2]; Influenza A virus): 218 ± 32 µM

O=c1[nH]c(=O)n(CCCCc2cn([C@@H]3O[C@H](CO[PH](=O)O)[C@@H](O)[C@H]3O)nn2)c2ccccc12 [Compound 24b]
CC50 (in vitro): > 516 µM
IC50 ([2]; Influenza A virus, H1N1, MDCK): > 516 µM

O=c1ccn(Cc2cn([C@@H]3O[C@H](COP(=O)(O)O)[C@@H](O)[C@H]3O)nn2)c(=O)[nH]1 [Compound 25a]
CC50 (in vitro): > 494 µM
IC50 ([2]; Influenza A virus, H1N1, MDCK): > 494 µM

O=c1[nH]c(=O)n(Cc2cn([C@@H]3O[C@H](COP(=O)(O)O)[C@@H](O)[C@H]3O)nn2)c2ccccc12 [Compound 25b]
CC50 (in vitro): > 458 µM
IC50 ([2]; Influenza A virus): 159 ± 19 µM

O=c1ccn(CCCCc2cn([C@@H]3O[C@H](COP(=O)(O)O)[C@@H](O)[C@H]3O)nn2)c(=O)[nH]1 [Compound 26a]
CC50 (in vitro): > 463 µM
Antiviral activity against H1N1 (A/PR/8/34) influenza virus, in words [2]: inactive
IC50 ([2]; Influenza A virus): 195 ± 26 µM

O=c1[nH]c(=O)n(CCCCc2cn([C@@H]3O[C@H](COP(=O)(O)O)[C@@H](O)[C@H]3O)nn2)c2ccccc12 [Compound 26b]
CC50 (in vitro): > 430 µM
IC50 ([2]; Influenza A virus): > 430 µM

O=c1ccn(Cc2cn([C@@H]3O[C@H](CO)[C@@H](O)[C@H]3O)nn2)c(=O)[nH]1 [Compound 33a]
IC50 [4]: > 880 µM
Antiviral activity against H1N1 (A/PR/8/34) influenza virus, in words [4]: completely inactive
CC50 (MDCK (ATCC CCL-34) cells [5]): > 880 µM

O=c1[nH]c(=O)n(Cc2cn([C@@H]3O[C@H](CO)[C@@H](O)[C@H]3O)nn2)c2ccccc12 [Compound 33b]
IC50 [4]: 42 ± 5 µM
SI (selectivity index, CC50/IC50 ratio) [2]: 3

O=c1ccn(CCCCc2cn([C@@H]3O[C@H](CO)[C@@H](O)[C@H]3O)nn2)c(=O)[nH]1 [Compound 34a]
IC50 [4]: > 180 µM
Antiviral activity against H1N1 (A/PR/8/34) influenza virus, in words [4]: inactive
CC50 (MDCK (ATCC CCL-34) cells [5]): > 817 µM

O=c1[nH]c(=O)n(CCCCc2cn([C@@H]3O[C@H](CO)[C@@H](O)[C@H]3O)nn2)c2ccccc12 [Compound 34b]
IC50 [4]: 30 ± 4 µM
CC50 (MDCK (ATCC CCL-34) cells [5]): > 719 µM

CCC(CC)O[C@@H]1C=C(C(=O)O)C[C@H](N)[C@H]1NC(C)=O [Oseltamivir carboxylate, reference compound]
CC50 (in vitro): > 200 µM
SI (selectivity index, CC50/IC50 ratio) [2]: >667
IC50 ([2]; Influenza A virus): 0.3 ± 0.06 µM

COC(=O)[C@H](C)NP(=O)(OC[C@H]1O[C@@H](n2cc(C)c(=O)[nH]c2=O)C[C@@H]1N=[N+]=[N-])Oc1ccccc1 (stereo partly drawn) [ProTide-ZDV, 5′-(phenylmethoxy-L-alaninyl)phosphate of Zidovudine]
Better activity against HIV than the parent nucleoside analogue (HIV; ProTide versus parent): more than 100 times

NC(=O)c1ncn([C@@H]2O[C@H](CO)[C@@H](O)[C@H]2O)n1 [Ribavirin, reference compound]
SI (selectivity index, CC50/IC50 ratio) [2]: 3
IC50 ([2]; Influenza A virus): 31 ± 9 µM
CC50 (MDCK (ATCC CCL-34) cells [3]; dog): 94 ± 48 µM

CC(N)C12CC3CC(CC(C3)C1)C2 (stereo not shown) [Rimantadine, reference compound]
SI (selectivity index, CC50/IC50 ratio) [2]: 4
IC50 ([2]; Influenza A virus, H1N1, MDCK): 77 ± 8 µM
CC50 (MDCK (ATCC CCL-34) cells [3]; read-out: CC50 (median cytotoxic concentration), MDCK cells, MTT, concentration causing 50% cell death): 340 ± 16 µM
